This is an account of results in US4675404A, “8-pyridazinylcarbamoyl ergolines” (Farmitala Carlo Erba S.p.A., priority 1981, dated 1987).

In general, LD50 refers to the dose at which mortality reaches 50%. A higher LD50 goes with lower toxicity. The term ED50 denotes the midpoint of the dose-response relation.

Where two headings read alike, the source gives them in different places. Where only a bound is given, the exact number is not on record here.

A short description of data set [1]: orientative acute toxicity. As to conditions: in vivo, po.
The subject of data set [2] is reserpine-induced blepharospasm. As to the kind of experiment: antagonism to reserpine-induced blepharospasm. Format: in vivo, male mice. Particulars: Mus musculus, po, 3 h, read-out: Reserpine antagonism ED50, Blepharospasm. On the procedure:
(§1) The antidepressant activity of the ergoline derivatives according to the invention can be evaluated by antagonism to reserpine-induced blepharospasm and hypothermia.
(§2) The tests were performed in an air-conditioned room at a constant termperature of 19°±1° C. Randomized groups of male mice were respectively treated by gavage with appropriate screening doses (from a maximum of 25 mg/kg below) of the test compounds, suspended in the vehicle (Methocel 0.5%; 1 ml/100 g b.w.), or with the vehicle alone. One hour later the animals received an i.p. injection of reserpine (1.5 mg/kg; 1 ml/100 g b.w.), and one of the control groups the same volume of the vehicle alone (blank controls).
(§3) Three hours after pretreatments, i.e. two hours after reserpine or vehicle treatments, blepharospasm was evaluated in scores as proposed by Rubin et al. (J. Pharmacol. 120, 125 (1957)). Two hours after the above mentioned evaluation the rectal temperature of the animals was recorded by an appropriate probe connected to a digital thermometer (Ellab DU-3).

For data set [3], the system named is reserpine-induced hypothermia. As to the kind of experiment: antagonism to reserpine-induced hypothermia. Format: in vivo, male mice. As to conditions: Mus musculus, po, 5 h; mice; p.o. by gavage 1 h before reserpine 1.5 mg/kg i.p.; rectal temperature 2 h after blepharospasm evaluation. On the procedure: as §1, §2, §3

`Cc1nnc(NC(=O)[C@@H]2C[C@@H]3c4cccc5[nH]cc(c45)C[C@H]3N(C)C2)s1` [Example 10, 6-methyl-8β-[2-(5-methyl-1,3,4-thiadiazolyl)-carbamoyl]-ergoline] gave an LD50 in data set [1] above 600 mg/kg. Also, the ED50 in data set [2] came to 3.5 mg/kg; in data set [3] it was 3.1 mg/kg.

Turning to `CN1C[C@H](C(=O)Nc2nccs2)C[C@@H]2c3cccc4c3c(cn4C)C[C@H]21` [1,6-dimethyl-8β-(2-thiazolyl-carbamoyl)-ergoline, reference compound], the values for the ED50 in data set [2] and in data set [3] were 7 mg/kg and 15 mg/kg, respectively.

Consider `CCCN1C[C@H](C(=O)Nc2nccs2)C[C@@H]2c3cccc4[nH]cc(c34)C[C@H]21` [Example 7, 6-propyl-8β-(2-thiazolyl-carbamoyl)-ergoline], for which the LD50 in data set [1] was above 300 mg/kg. Besides, the ED50 in data set [2] amounted to 0.5 mg/kg; in data set [3] it was 0.6 mg/kg.

For `CN(C)CCCN1c2ccccc2CCc2ccccc21` [Imipramine, reference compound], the ED50 in data set [2] (mice, p.o. by gavage 1 h before reserpine 1.5 mg/kg i.p., scored 2 h after reserpine) turned out to be 8.1 mg/kg; in data set [3], 18.2 mg/kg.

As to `Cc1nnc(NC(=O)[C@@H]2C[C@@H]3c4cccc5[nH]c(C)c(c45)C[C@H]3N(C)C2)s1` [Example 16, 2,6-dimethyl-8β-[2-(5-methyl-1,3,4-thiadiazolyl)-carbamoyl]-ergoline], in data set [1], the LD50 was above 800 mg/kg. In addition, the ED50 in data set [2] worked out at 1 mg/kg; in data set [3], 1.7 mg/kg.

In data set [1], `C=CCN1C[C@H](C(=O)Nc2nccs2)C[C@@H]2c3cccc4[nH]cc(c34)C[C@H]21` [Example 6, 6-allyl-8β-(2-thiazolyl-carbamoyl)-ergoline] had an LD50 above 300 mg/kg. The ED50 in data set [2] came to 2.5 mg/kg; in data set [3], 4 mg/kg.

Take `C=CCN1C[C@H](C(=O)Nc2ccc(Cl)nn2)C[C@@H]2c3cccc4[nH]cc(c34)C[C@H]21` [Example 5, 6-allyl-8β-(6-chloro-3-pyridazinyl-carbamoyl)-ergoline]: the LD50 in data set [1] is above 600 mg/kg. Also, the ED50 was 3.6 mg/kg in data set [2] and 4.5 mg/kg in data set [3].

Take `Cc1[nH]c2cccc3c2c1C[C@@H]1[C@@H]3C[C@@H](C(=O)Nc2ccc(Cl)nn2)CN1C` [Example 4, 2,6-dimethyl-8β-(6-chloro-3-pyridazinyl-carbamoyl)-ergoline]: the LD50 in data set [1] was above 300 mg/kg. Moreover, the ED50 in data set [2] amounted to 0.2 mg/kg; in data set [3], 0.6 mg/kg.
